From EPA's ToxValDB 9.5 (doi:10.2903/j.efsa.2015.4302) come the findings set out here.

One data set concerns Colinus virginianus. The following applies: for LC50 / LD50: acute, oral, mortality; for LC50: diet.
In another data set the test system is Danio rerio. To be noted: short-term; duration: 168 hours; growth.
The test system of the next data set is Apis mellifera. To be noted: acute, mortality.
For the next data set, the system named is Oryctolagus sp. The following applies: repeat dose other; mortality.
The subject of another data set is Pimephales promelas. The following applies: chronic/long-term; duration: 255 days; growth.
The test system of a further data set is Tagia sp. To be noted: acute; duration: 14 days; mortality.
A further data set deals with Oncorhynchus mykiss. The following applies: chronic/long-term; duration: 85 days; growth.
Another data set deals with Anabaena flosaquae. The following applies: acute; duration: 72 hours.
A further data set deals with Anas platyrhynchos. The following applies: reproductive.
The test system of another data set is Skeletonema costatum. The following applies: acute; duration: 72 hours; growth.
For another data set, the system named is Daphnia magna. The following applies: chronic/long-term; duration: 21 days; reproduction.

For `NCP(=O)(O)O` [Aminomethylphosphonic acid], in the data set with Colinus virginianus, the LC50 was over 5620 mg/kg-day and the LD50 is over 2250 mg/kg-day.

The NOAEL is the highest dose or exposure tested at which no adverse effect was seen. `O=C(O)CNCP(=O)(O)O` [Glyphosate]: the NOEC came to 1 mg/L in the data set on Danio rerio; 25.7 mg/L in the data set with Pimephales promelas; 9.6 mg/L in the data set on Oncorhynchus mykiss; 12 mg/L in the data set on Anabaena flosaquae; 1.82 mg/L in the data set on Skeletonema costatum; 12.5 mg/L with Daphnia magna. For the same compound, the LD50 was over 100 µg/piece with Apis mellifera (dermal); 100 µg/piece in the data set with Apis mellifera (oral, unspecified); 4330 mg/kg-day in the data set with Colinus virginianus; over 2000 mg/kg-day with Rattus norvegicus (acute, mortality). Also, the NOAEL in the data set on Oryctolagus sp. is 50 mg/kg-day; in the data set with Rattus norvegicus (chronic) it was 197 mg/kg-day. Also, the results for the LC50 in the data set with Tagia sp. and with Colinus virginianus were 5600 mg/kg and over 5200 mg/kg-day, respectively. In addition, the NOEL amounted to 96.3 mg/kg-day in the data set on Colinus virginianus (reproduction developmental) and 125 mg/kg-day in the data set with Anas platyrhynchos.
